Measurements taken from patent publication US11685766B2, “14-3-3 targeting peptides for cancer treatment” (Creighton University, priority 2019, dated 2023).
“Also recorded” adds a separate entry of the source. Peptide text beside a SMILES is read from it.

How the values were obtained:
[1] = system: SCC13 cells xenograft tumors; experiment: Mouse SCC tumor xenografts (TUNEL, immunofluorescence, tumor growth); format: in vivo; settings: for tumor volume compared to vehicle-treated xenografts: mouse xenograft tumors; for P-Akt (S473) levels in SCC xenografts (immunofluorescence) / Survivin levels in SCC xenografts (immunofluorescence): vs vehicle-treated xenografts; for increase in number of TUNEL-positive SCC cells compared to vehicle: intratumoral 2.5 nmol/50 μL, NCG mice, SCC13
Description: Immunofluorescence was performed using an alexa-fluor488-conjugated secondary antibody (IgG mouse or rabbit) (Invitrogen) with 4′,6-diamidino-2-phenylindole (DAPI) (Vector Labs, Burlingame, Calif., USA) to identify nuclei. Cellular localization of immunohistochemistry signal was determined in a double-blinded manner. Slides were digitalized and fluorescence intensity was measured using Image analysis was performed using the Olympus VS120 Slide Scanner and Olyvia Analysis Software, respectively (Olympus, Tokyo, Japan).
Groups of NCG mice (NOD CRISPR Prkdc Il2r gamma/NjuCrl) (Charles River, Malvern, Pa., USA) were injected s.c. with 5×10^5 SCC13 cells suspended in 1:1 mixture of 1×PBS:Matrigel (Corning, Corning, N.Y., USA). Once the tumors reached a volume of 150 mm^3, tumors were treated with either vehicle (50 μL 1×PBS) or 2.5 nmol/50 μL of the targeting peptide ES1P2. Tumors were injected directly with either vehicle or ES1P2 daily for 2 days or every other day for 2 weeks and then harvested for analysis 24 hours after the last treatment. Tumors were fixed overnight in 10% buffered formalin (Thermo Fisher) and then switched to 70% ethanol the following day. All procedures were performed in accordance with the guidance of Creighton University Institutional Animal Care and Use Committee.
TUNEL (Terminal deoxynucleotidyl transferase dUTP nick end labeling) was carried out using Promega DeadEnd Fluorometric TUNEL system in accordance with the manufacturer's instructions (Promega). Cells were treated with DAPI (Vector Labs) to locate the nuclei within cells. […] Slides were digitalized and apoptotic nuclei counted using an Olympus VS120 Slide Scanner (Olympus).
Immunostaining was performed using antibodies recognizing P-Akt (S473) (Thermo Fisher) and Survivin (Cell Signaling, Danvers, Mass., USA), with alexa-fluor488-conjugated secondary antibody (IgG rabbit) (Invitrogen) with 4′,6-diamidino-2-phenylindole (DAPI) (Vector Labs, Burlingame, Calif., USA) to identify the nuclei. Slides were digitalized and analyzed using an Olympus VS120 Slide Scanner (Olympus, Shinjuku, Tokyo, JPN).
Groups of NCG mice (NOD CRISPR Prkdc Il2r gamma/NjuCrl) (Charles River, Malvern, Pa., USA) were injected s.c. with 5×10^5 human SCC13 cells suspended in 1:1 mixture of 1×PBS:Matrigel (Corning, Corning, N.Y., USA). Once the tumors reached 150 mm^3 in volume they were treated intratumorally with either vehicle (1× sterile PBS, pH, 7.5), pS, or pT (2.5 nmol/50 μL for each) daily for 2 days and then the mice were euthanized 24 hours after the second treatment. Tumors were fixed overnight in 10% neutral buffered formalin (Thermo Fisher) and then switched to 70% ethanol the following day before embedding and sectioning. All procedures were performed in accordance with the guidance of the Creighton University Institutional Animal Care and Use Committee.
TUNEL (terminal uridine nick-end labelling) assays were carried out using the Promega DeadEnd Fluorometric TUNEL system in accordance with the manufacturer's instructions (Promega Corporation, Madison, Wis., USA). Cells were treated with 4′,6-diamidino-2-phenylindole (DAPI) to locate the nuclei within cells. Slides were scanned and analyzed using an Olympus VS120 Slide Scanner (Olympus).

SCC12B.2 cells = experiment: Caspase-3/7 Glo assay (apoptosis); format: cell-based, human; settings: ES1P2 20 μM; pS 30 μM; pT 20 μM, 24 hours; vs vehicle
Description: Apoptosis was assessed using a Caspase-3/7 Glo assay (Promega Corporation, Madison, Wis., USA) in a 96-well white-bottom plate (BRANDplates, Wertheim, Germany) according to the manufacturer's instructions. Cells were seeded at a density of 8×10^3 cells/well and incubated overnight before treatments or transfections. Luminescence was read using a Cytation 5 multi-mode plate reader (BioTek Instruments, Winooski, Vt., USA).
Apoptosis was assessed using a Caspase-3/7 Glo assay (Promega) in a 96-well white-bottom plate (BRANDplates, Wertheim, Germany). Cells were seeded at a density of 8×10^3 cells/well and Caspase-3/7 glo was performed 24 hours post-treatment according to the manufacturer's instructions and read using a Cytation 5 multi-mode plate reader (BioTek, Instruments, Winooski, Vt., USA).

14-3-3ε protein = biological target: T1, 14-3-3ε protein (Homo sapiens, UniProt P62258); experiment: Differential scanning fluorimetry (DSF) binding; settings: 7 μM 14-3-3ε, ΔTm vs peptide concentration, Hill fit; read-out: Kd, binding affinity to 14-3-3ε protein (DSF)
T1 sequence (P62258 1-255): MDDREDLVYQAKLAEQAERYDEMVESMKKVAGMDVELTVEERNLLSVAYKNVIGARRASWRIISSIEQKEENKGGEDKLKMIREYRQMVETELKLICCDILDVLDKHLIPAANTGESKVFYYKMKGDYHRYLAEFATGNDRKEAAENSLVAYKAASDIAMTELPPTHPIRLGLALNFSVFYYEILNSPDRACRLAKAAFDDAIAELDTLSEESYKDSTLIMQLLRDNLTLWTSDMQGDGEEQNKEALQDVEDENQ
Description: Differential scanning fluorimetry (DSF) experiments were performed using BioRad CFX384 Real-Time qPCR attached with C1000 Touch Thermo Cycler in the FRET channel. 7 μM subunits of 14-3-3ε protein, ten molar excess of Sypro Orange and 20 mM Tris-HCl, pH 7.4 assay buffer were used in all the melting experiments. Stock solution of peptides were prepared by dissolving 1 mg of lyophilized peptides in 20 mM Tris, pH 7.4 buffer and 0.1 μM to 200 μM dilution series were prepared. Protein melting experiments were performed both in the absence and the presence of increasing concentration of peptides. 15 μL of each samples (in triplicate) were put into each well of a 384-well white PCR plate and sealed with optical adhesive sealer (BioRad MSB-1001) and any air-bubble in the solutions were removed by spinning the plate vertically with PCR plate spinner (Labnet MPS 1000) at 1000 RPM for 3 minutes. The temperature was increased from 25° C. to 95° C. at a rate of 0.7° C. per minute. Melting temperatures of each well were determined using the CFX Maestro software version 2.0 by plotting the first derivative of fluorescence signal against temperature. All the measurements were performed in triplicate and the deviations of melting temperatures (ΔTm) presented for each samples were calculated relatively to three control samples (7 μM 14-3-3ε in the absence of the peptide). Binding constant (Kd) for each peptide was calculated by plotting ΔTm against peptide concentration and data points were fitted with Hill's equation using GraphPad 9.0 software.

SMILES | number of TUNEL-positive SCC cells compared to vehicle ([1]; intratumoral 2.5 nmol, 2 daily treatments) | tumor volume compared to vehicle-treated xenografts [1] | reduction of SCC growth compared to vehicle ([1]; repeated intratumoral treatments of SCC xenografts, FIG. 1H/1I) | P-Akt (S473) levels in SCC xenografts (immunofluorescence) [1] | Survivin levels in SCC xenografts (immunofluorescence) [1] | apoptosis of SCC cells (Caspase-3/7) (SCC12B.2 cells) | increase in number of TUNEL-positive SCC cells compared to vehicle ([1]; 2 daily treatments) [%] | Kd (14-3-3ε protein) [µM]
NCCCC[C@H](NC(=O)[C@H](Cc1c[nH]c2ccccc12)NC(=O)[C@H](Cc1ccc(O)cc1)NC(=O)[C@@H](N)Cc1c[nH]c2ccccc12)C(N)=O [ES1P2, Trp-Tyr-Trp-Lys-NH2] (H-WYWK-NH2) | more than doubled | decreased tumor growth; also recorded: reduced tumor volume | approximately one-third | decreased | decreased | increasing apoptosis to a statistically significant degree |  | 
CSCC[C@H](NC(=O)[C@H](CCCNC(=N)N)NC(=O)[C@@H]1CCCN1C(=O)[C@H](C)NC(=O)[C@H](COP(=O)(O)O)NC(=O)[C@H](CC(N)=O)NC(=O)[C@H](CCC(N)=O)NC(=O)[C@H](CCCNC(=N)N)NC(=O)[C@H](CCC(N)=O)NC(=O)[C@@H](NC(C)=O)[C@@H](C)O)C(=O)N[C@@H](CC(C)C)C(=O)N[C@@H](CO)C(=O)N[C@@H](CO)C(=O)N[C@@H](CC(N)=O)C(N)=O [pS, Ac-Thr-Gln-Arg-Gln-Asn-Ser-(PO3^2−)-Ala-Pro-Arg-Met-Leu-Ser-Ser-Asn-NH2] (HELM PEPTIDE1{[ac].T.Q.R.Q.N.[O=C([C@H](COP(=O)(O)O)N[*:1])[*:2]].A.P.R.M.L.S.S.N.[am]}$$$$V2.0) |  | decreased volume |  | decreased | decreased | increased apoptosis | 25 | 11.2
CC(=O)N[C@@H](CCCNC(=N)N)C(=O)N[C@H](C(=O)N[C@@H](CCCCN)C(=O)N[C@@H](CO)C(=O)N[C@@H](CCCNC(=N)N)C(=O)N[C@H](C(=O)N[C@@H](Cc1c[nH]c2ccccc12)C(=O)N[C@@H](C)C(=O)NCC(=O)N[C@@H](CCC(=O)O)C(=O)N[C@@H](CCCCN)C(=O)N[C@@H](CO)C(=O)N[C@@H](CCCCN)C(=O)N[C@@H](CCCNC(=N)N)C(N)=O)[C@@H](C)OP(=O)(O)O)[C@@H](C)O [pT, Ac-Arg-Thr-Lys-Ser-Arg-Thr(PO3^2−)-Trp-Ala-Gly-Glu-Lys-Ser-Lys-Arg-NH2] (HELM PEPTIDE1{[ac].R.T.K.S.R.[C[C@@H](OP(=O)(O)O)[C@H](N[*:1])C(=O)[*:2]].W.A.G.E.K.S.K.R.[am]}$$$$V2.0) |  | decreased volume |  | decreased | decreased | increased apoptosis | 51 | 3.64
